Laboratory results reported in ChEMBL document CHEMBL1136405, “Acyclic N-(azacycloalkyl)bisindolylmaleimides: isozyme selective inhibitors of PKCbeta” (Bioorg Med Chem Lett, 2003).

Key:
[1] = target: Protein kinase C (PKC); experiment: Inhibition of purified rat brain protein kinase C (RB-PKC)
[2] = Inhibition of cAMP dependent protein kinase catalytic subunit of bovine heart; set-up: species or system Bos taurus
[3] = Inhibition of purified rat brain casein kinase II
[4] = target: Proto-oncogene tyrosine-protein kinase Src (Homo sapiens, UniProt P12931); experiment: Inhibition of Src protein tyrosine kinase
Sequence of Proto-oncogene tyrosine-protein kinase Src (P12931 2-536 limits assumed): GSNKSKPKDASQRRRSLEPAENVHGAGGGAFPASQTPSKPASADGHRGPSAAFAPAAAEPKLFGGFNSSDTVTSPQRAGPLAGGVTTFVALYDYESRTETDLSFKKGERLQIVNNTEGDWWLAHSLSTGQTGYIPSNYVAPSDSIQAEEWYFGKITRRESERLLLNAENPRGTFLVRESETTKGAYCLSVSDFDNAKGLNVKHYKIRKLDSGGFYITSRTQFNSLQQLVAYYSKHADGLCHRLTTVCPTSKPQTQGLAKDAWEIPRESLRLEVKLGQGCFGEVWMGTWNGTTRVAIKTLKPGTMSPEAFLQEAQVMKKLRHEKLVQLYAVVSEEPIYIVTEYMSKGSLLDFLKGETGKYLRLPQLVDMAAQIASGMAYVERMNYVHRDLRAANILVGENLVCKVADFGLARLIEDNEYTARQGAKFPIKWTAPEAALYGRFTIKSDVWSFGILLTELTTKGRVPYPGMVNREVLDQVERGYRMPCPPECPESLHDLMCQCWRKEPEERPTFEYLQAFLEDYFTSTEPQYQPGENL

[5] = target: CaM kinase II (Homo sapiens, UniProt Q13557+Q13555+Q13554+Q9UQM7); experiment: Inhibition of purified mammalian brain [Ca(2+)]/Calmodulin dependent kinase
[6] = target: T1, Protein kinase C zeta type (Homo sapiens, UniProt Q05513); experiment: Inhibition of Protein kinase C zeta
T1 sequence (Q05513 whole entry): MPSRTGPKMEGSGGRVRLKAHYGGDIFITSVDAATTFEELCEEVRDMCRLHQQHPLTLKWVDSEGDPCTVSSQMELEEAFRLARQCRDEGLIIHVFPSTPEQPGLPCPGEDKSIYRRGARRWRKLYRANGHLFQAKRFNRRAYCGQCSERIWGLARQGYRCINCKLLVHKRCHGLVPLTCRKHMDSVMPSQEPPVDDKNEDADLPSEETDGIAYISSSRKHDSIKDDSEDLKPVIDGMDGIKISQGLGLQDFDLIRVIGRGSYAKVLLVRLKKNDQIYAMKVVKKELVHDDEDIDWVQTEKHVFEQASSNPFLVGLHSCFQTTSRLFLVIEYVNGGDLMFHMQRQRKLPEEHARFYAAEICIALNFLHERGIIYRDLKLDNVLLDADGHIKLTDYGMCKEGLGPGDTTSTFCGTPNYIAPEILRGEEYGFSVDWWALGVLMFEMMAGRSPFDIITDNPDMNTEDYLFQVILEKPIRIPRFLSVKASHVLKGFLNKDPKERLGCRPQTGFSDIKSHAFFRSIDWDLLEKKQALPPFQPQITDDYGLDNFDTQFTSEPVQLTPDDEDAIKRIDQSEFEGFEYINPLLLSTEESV

[7] = target: Protein kinase C eta type (Homo sapiens, UniProt P24723); experiment: Inhibition of Protein kinase C eta
Sequence of Protein kinase C eta type (P24723 whole entry): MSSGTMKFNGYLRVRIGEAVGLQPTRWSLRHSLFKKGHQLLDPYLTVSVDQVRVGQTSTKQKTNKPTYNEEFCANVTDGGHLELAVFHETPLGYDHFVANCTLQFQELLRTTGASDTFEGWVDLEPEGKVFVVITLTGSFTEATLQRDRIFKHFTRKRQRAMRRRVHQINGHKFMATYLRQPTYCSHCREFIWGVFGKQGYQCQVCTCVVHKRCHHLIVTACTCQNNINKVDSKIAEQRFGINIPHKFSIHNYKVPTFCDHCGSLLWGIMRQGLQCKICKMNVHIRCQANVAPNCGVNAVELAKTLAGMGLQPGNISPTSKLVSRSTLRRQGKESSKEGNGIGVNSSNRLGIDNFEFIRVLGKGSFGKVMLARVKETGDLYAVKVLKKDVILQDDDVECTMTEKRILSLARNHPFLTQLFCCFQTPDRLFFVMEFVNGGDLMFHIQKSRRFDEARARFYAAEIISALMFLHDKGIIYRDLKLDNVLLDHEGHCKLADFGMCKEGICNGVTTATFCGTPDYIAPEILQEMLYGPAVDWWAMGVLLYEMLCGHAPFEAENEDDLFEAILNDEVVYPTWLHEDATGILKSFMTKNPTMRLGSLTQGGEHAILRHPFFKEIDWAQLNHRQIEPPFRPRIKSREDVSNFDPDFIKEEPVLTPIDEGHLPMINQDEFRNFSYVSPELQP

[8] = target: Protein kinase C gamma type (Homo sapiens, UniProt P05129); experiment: Inhibition of Protein kinase C gamma
[9] = target: Protein kinase C alpha type (Homo sapiens, UniProt P17252); experiment: Inhibition of Protein kinase C alpha
[10] = target: Protein kinase C delta type (Homo sapiens, UniProt Q05655); experiment: Inhibition of Protein kinase C delta
Sequence of Protein kinase C delta type (Q05655 whole entry): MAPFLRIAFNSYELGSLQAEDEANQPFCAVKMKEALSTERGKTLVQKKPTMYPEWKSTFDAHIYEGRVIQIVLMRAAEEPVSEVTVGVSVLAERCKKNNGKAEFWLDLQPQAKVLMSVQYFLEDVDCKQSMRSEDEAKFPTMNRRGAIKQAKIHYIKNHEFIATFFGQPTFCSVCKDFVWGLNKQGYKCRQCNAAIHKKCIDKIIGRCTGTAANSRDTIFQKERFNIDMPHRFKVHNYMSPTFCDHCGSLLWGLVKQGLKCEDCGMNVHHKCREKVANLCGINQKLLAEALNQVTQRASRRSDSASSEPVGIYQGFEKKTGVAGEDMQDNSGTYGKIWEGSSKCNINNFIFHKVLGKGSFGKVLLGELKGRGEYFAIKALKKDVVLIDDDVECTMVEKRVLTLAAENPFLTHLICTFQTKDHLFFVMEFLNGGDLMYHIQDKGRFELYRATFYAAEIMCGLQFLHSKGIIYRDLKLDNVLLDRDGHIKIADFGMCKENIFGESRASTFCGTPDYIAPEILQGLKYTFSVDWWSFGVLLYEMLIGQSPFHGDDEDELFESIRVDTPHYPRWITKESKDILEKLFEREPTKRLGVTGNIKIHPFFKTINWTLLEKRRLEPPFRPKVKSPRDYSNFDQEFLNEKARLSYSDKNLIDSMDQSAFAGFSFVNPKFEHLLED

[11] = target: T2, Protein kinase C beta type (Homo sapiens, UniProt P05771); experiment: Inhibition of Protein kinase C beta 1
T2 sequence (P05771 whole entry): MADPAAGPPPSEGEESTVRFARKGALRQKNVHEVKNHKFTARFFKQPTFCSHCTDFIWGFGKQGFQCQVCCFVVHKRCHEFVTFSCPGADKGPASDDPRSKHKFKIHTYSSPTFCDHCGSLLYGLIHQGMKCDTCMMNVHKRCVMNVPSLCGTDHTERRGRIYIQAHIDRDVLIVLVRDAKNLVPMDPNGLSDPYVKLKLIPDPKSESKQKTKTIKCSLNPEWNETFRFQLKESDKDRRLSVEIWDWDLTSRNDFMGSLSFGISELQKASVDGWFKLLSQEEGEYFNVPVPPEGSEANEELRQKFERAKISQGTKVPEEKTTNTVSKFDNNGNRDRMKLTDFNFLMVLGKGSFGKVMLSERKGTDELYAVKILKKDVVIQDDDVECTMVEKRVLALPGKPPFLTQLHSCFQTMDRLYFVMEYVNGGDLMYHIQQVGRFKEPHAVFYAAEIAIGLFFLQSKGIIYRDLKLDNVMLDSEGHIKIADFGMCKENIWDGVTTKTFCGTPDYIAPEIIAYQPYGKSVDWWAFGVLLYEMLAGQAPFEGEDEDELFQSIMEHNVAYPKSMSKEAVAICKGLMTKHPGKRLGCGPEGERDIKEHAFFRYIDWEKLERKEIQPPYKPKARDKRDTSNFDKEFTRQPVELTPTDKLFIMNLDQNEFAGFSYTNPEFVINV

[12] = target: T2, Protein kinase C beta type; experiment: Inhibition of Protein kinase C beta 2
[13] = target: T3, Protein kinase C epsilon type (Homo sapiens, UniProt Q02156); experiment: Inhibition of Protein kinase C epsilon
T3 sequence (Q02156 whole entry): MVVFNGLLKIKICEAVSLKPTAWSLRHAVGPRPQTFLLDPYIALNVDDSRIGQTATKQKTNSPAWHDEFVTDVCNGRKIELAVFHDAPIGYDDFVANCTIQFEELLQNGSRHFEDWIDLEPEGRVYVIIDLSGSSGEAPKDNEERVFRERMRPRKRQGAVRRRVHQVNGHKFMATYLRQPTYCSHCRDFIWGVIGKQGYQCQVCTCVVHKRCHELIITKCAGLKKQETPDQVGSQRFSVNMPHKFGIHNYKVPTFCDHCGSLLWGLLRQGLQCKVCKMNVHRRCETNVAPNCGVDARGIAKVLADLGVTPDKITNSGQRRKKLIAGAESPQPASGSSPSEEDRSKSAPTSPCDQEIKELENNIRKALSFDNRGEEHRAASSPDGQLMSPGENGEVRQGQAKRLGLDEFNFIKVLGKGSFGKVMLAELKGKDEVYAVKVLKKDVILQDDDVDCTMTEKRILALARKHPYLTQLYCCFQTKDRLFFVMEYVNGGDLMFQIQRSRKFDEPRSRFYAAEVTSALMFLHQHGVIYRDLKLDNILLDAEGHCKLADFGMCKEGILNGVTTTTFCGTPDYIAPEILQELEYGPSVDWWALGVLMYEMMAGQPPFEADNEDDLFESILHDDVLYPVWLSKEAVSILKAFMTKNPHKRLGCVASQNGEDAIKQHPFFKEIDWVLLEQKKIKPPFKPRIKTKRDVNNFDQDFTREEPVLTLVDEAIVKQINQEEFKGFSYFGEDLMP

For `Cn1cc(C2=C(c3cn(C4CCN(CC5CC5)CC4)c4ccccc34)C(=O)NC2=O)c2ccccc21`, the IC50 [1] was 0.3 µM, the IC50 [2] was greater than 100 µM and the IC50 [3] was greater than 100 µM. The IC50 [4] was 68 µM.

With `CC(C)N1CCC(n2cc(C3=C(c4cn(C)c5ccccc45)C(=O)NC3=O)c3ccccc32)CC1` the IC50 [1] was 0.25 µM, the IC50 [2] was greater than 100 µM and the IC50 [3] was greater than 100 µM.

In the case of `Cn1cc(C2=C(c3cn(C4CCN(Cc5ccccn5)CC4)c4ccccc34)C(=O)NC2=O)c2ccccc21` [ENZASTAURIN], the IC50 [1] is reported as 0.7 µM, the IC50 [2] is reported as greater than 100 µM and the IC50 [3] is reported as greater than 100 µM.

For `Cn1cc(C2=C(c3cn(C4CCN(Cc5ccccc5)CC4)c4ccccc34)C(=O)NC2=O)c2ccccc21`, the IC50 [1] was 4 µM, the IC50 [5] was greater than 40 µM and the IC50 [2] was greater than 100 µM. It also gave an IC50 [6] greater than 100 µM, an IC50 [3] greater than 40 µM and an IC50 [4] greater than 100 µM.

`CCN1CCC(n2cc(C3=C(c4cn(C)c5ccccc45)C(=O)NC3=O)c3ccccc32)CC1` showed an IC50 [2] of 8 µM, an IC50 [3] greater than 100 µM and an IC50 [4] of 11 µM.

In the case of `CN1CCC(n2cc(C3=C(c4cn(C)c5ccccc45)C(=O)NC3=O)c3ccccc32)CC1`, the IC50 [1] is reported as 0.2 µM, the IC50 [2] is reported as 7 µM and the IC50 [3] is reported as greater than 100 µM. The IC50 [4] was greater than 100 µM.

`Cn1cc(C2=C(c3cn(C4CCN(Cc5ccccc5)C4)c4ccccc34)C(=O)NC2=O)c2ccccc21` (stereo unspecified) gave an IC50 [1] of 2.8 µM, an IC50 [2] greater than 100 µM and an IC50 [7] of 0.042 µM. It also gave an IC50 [8] of 3.5 µM, an IC50 [9] of 3.8 µM and an IC50 [10] of 4.2 µM. It also gave an IC50 [11] of 0.022 µM, an IC50 [12] of 0.024 µM and an IC50 [6] greater than 100 µM. The IC50 [13] was 9.4 µM and the IC50 [3] was greater than 100 µM.

Work on `Cn1cc(C2=C(c3cn(C4CCN(C(=O)OC(C)(C)C)CC4)c4ccccc34)C(=O)NC2=O)c2ccccc21` yielded an IC50 [7] of 8 µM, an IC50 [8] of 5 µM and an IC50 [9] of 6 µM. For the same molecule, the IC50 [10] was 7 µM, the IC50 [11] was 0.2 µM and the IC50 [12] was 0.08 µM. It also gave an IC50 [6] greater than 100 µM and an IC50 [13] of 6 µM.

For `CN(C)C[C@@H]1CCn2cc(c3ccccc32)C2=C(C(=O)NC2=O)c2cn(c3ccccc23)CCO1`, the IC50 [2] was greater than 100 µM and the IC50 [3] was greater than 100 µM.

For `CN1CCC(n2cc(C3=C(c4c[nH]c5ccccc45)C(=O)NC3=O)c3ccccc32)CC1`, the IC50 [1] was 0.2 µM, the IC50 [5] was 3 µM and the IC50 [2] was 4 µM. It also gave an IC50 [3] of 91 µM and an IC50 [4] of 83 µM.

For `Cn1cc(C2=C(c3cn(C4CCNCC4)c4ccccc34)C(=O)NC2=O)c2ccccc21`, the IC50 [2] was 1 µM and the IC50 [3] was greater than 100 µM.
